Results on 51 molecules are retold here after PubChem BioAssay AID1996.

≈ marks a conversion by molar mass, not a printed value. A value given as a limit tells only on which side of the number the result lay.

For the data set the following is noted: buffer; pH 7.4; 200.0 µM.
In general, kinetic solubility refers to the concentration staying in solution when a stock, usually in DMSO, is diluted into the medium. With `Cl.O=C(Nc1cccc(F)c1)[C@@H]1CCCN1`, the kinetic solubility was over 36.7 µg/mL.

In turn, `COC(=O)[C@H](Cc1ccccc1)NC(=O)NCCc1ccccc1F` gave a solubility (kinetic) of over 51.7 µg/mL.

In turn, `O=C(Cc1ccc(Br)cc1)NCCc1ccc(F)cc1` came in with a kinetic solubility of 14.9 µg/mL (≈ 44.3 µM).

`COC(=O)c1ccc(CN2CCCCC2)cc1` had a solubility (kinetic) of 28.9 µg/mL (≈ 124 µM).

For the molecule `CCOC(=O)Cn1c(=NC(=O)C(C)C)sc2c(C)cc(C)cc21`, the solubility (kinetic) was under 0.4 µg/mL.

Molecule `Cc1ccc(Oc2ncnc(N)c2[N+](=O)[O-])cc1` registered a solubility (kinetic) of 12.3 µg/mL (≈ 50 µM).

Take `O=C(Cc1ccc(Cl)cc1)NNC(=O)C1CC=CCC1C(=O)O` (stereo unspecified): the solubility (kinetic) was over 50.5 µg/mL.

`CN(CC(=O)NCc1ccccn1)S(=O)(=O)c1ccc(F)cc1` registered a kinetic solubility of over 50.6 µg/mL.

`COc1ccc(OC(C)C(=O)NC2CCCCCC2)cc1` (stereo unspecified) gave a solubility (kinetic) of 40 µg/mL (≈ 137 µM).

`Cc1nc2ccc(NC(=S)NCc3ccccc3)cc2nc1C`: the solubility (kinetic) is over 48.4 µg/mL.

`O=C(NCc1cccc(Cl)c1)c1ccncc1`: the solubility (kinetic) was over 37 µg/mL.

`Cn1c(C(=O)N[C@@H](Cc2ccccc2)C(=O)O)cc2cc(F)ccc21` displayed a kinetic solubility of over 51.1 µg/mL.

Molecule `Cc1nc(SCC(=O)NC2CCS(=O)(=O)C2)c2c3c(sc2n1)CCC3` (stereo unspecified) displayed a solubility (kinetic) of 7.3 µg/mL (≈ 18.4 µM).

As for `CN(Cc1cccc(F)c1)C(=O)c1ccc(S(=O)(=O)N2CCCCCC2)cc1`, the solubility (kinetic) was 25.4 µg/mL (≈ 62.8 µM).

Consider `OCCN(Cc1ccccc1)c1ncnc2sccc12`, for which the solubility (kinetic) was over 42.8 µg/mL.

`Cc1cc(NC(=O)c2ccc(-c3ccccc3[N+](=O)[O-])o2)no1` came in with a solubility (kinetic) of 6.7 µg/mL (≈ 21.4 µM).

Molecule `c1ccc(CNc2cncnc2)cc1` registered a kinetic solubility of 26.4 µg/mL (≈ 143 µM).

As to `O=C(NCCc1ccccc1)c1cccc(N2C(=O)C3CC=CCC3C2=O)c1` (stereo unspecified), the kinetic solubility came to 47.2 µg/mL (≈ 126 µM).

For `CCOC(=O)c1c(C)[nH]c(C(=O)NCC(c2ccco2)N2CCCCC2)c1C` (stereo unspecified), the solubility (kinetic) was determined as 2 µg/mL (≈ 5.16 µM).

As to `Nc1ccc(-c2cn3cccnc3n2)cc1`, the kinetic solubility is over 31.5 µg/mL.

The molecule `O=C(CNS(=O)(=O)c1ccc(Br)cc1)N1CCN(Cc2ccccc2)CC1` registered a solubility (kinetic) of 7.2 µg/mL (≈ 15.9 µM).

With `O=C(c1ccc(Oc2ccc(Cl)cc2)c([N+](=O)[O-])c1)N1CCCC1`, the solubility (kinetic) amounted to 41.1 µg/mL (≈ 119 µM).

`Cc1ccnc(NC(=O)c2ccc([N+](=O)[O-])s2)c1` gave a solubility (kinetic) of 4 µg/mL (≈ 15.2 µM).

For `COc1ccc2[nH]cc(/C=C/C(=O)c3ccccc3)c2c1`, the kinetic solubility amounted to 2.9 µg/mL (≈ 10.5 µM).

`Cc1cc(Cl)nc(Cl)c1C(=O)NCc1ccc(Cl)cc1` displayed a kinetic solubility of 6.8 µg/mL (≈ 20.6 µM).

In the case of `CN1C(=S)SC(/[N+]([O-])=C\c2ccccc2F)C1(C)C` (stereo unspecified), the solubility (kinetic) was over 44.8 µg/mL.

`Cc1cc(=O)oc2cc(OCCSCCN3CCCC3)ccc12` returned a kinetic solubility of over 50 µg/mL.

In turn, `O=C1C2C3C=CC(CC3)C2C(=O)N1c1ccc(F)cc1` (stereo unspecified) displayed a kinetic solubility of 17.9 µg/mL (≈ 66 µM).

`Cc1ccc(NC(=O)C2OCCc3ccccc32)cc1Cl` (stereo unspecified): the kinetic solubility was under 0.6 µg/mL.

`CCOc1cc(C(F)(F)F)cnc1/C(N)=N/O` gave a kinetic solubility of 36.9 µg/mL (≈ 148 µM).

The molecule `O=C(CSc1nc(-c2ccccc2)cs1)NCCCN1CCCC1=O` had a solubility (kinetic) of over 56.3 µg/mL.

For `Cc1ccsc1C(=O)OCC(=O)Nc1nnc(-c2ccccc2)o1`, the kinetic solubility is over 51.5 µg/mL.

On to `Nc1nc(N)n(-c2ccccc2)c(=Nc2ccccc2)n1`, for which the solubility (kinetic) was over 41.7 µg/mL.

The molecule `CC(=O)c1ccc(-c2ccc(C(=O)Nc3nc(-c4ccccn4)cs3)o2)cc1` came in with a solubility (kinetic) of 4.9 µg/mL (≈ 12.6 µM).

As to `COc1cccc(OCC(O)CNC2CCCC2)c1.Cl` (stereo unspecified), the solubility (kinetic) is over 45.3 µg/mL.

`Cc1nc(NC(=O)c2cc3ccccc3o2)sc1C` yielded a kinetic solubility of 3.1 µg/mL (≈ 11.4 µM).

On to `CC(C)(C)C(=O)N1CCN(c2ccc([N+](=O)[O-])cc2-n2cccc2)CC1`, for which the solubility (kinetic) amounted to 1.4 µg/mL (≈ 3.93 µM).

Turning to `COc1cc(CNCc2ccc3c(c2)OCO3)c([N+](=O)[O-])cc1OC`, the kinetic solubility worked out at 46.6 µg/mL (≈ 135 µM).

The molecule `CC(=O)Nc1ccc(S(=O)(=O)Nc2ccc(Cl)cn2)cc1` yielded a kinetic solubility of 46.3 µg/mL (≈ 142 µM).

Molecule `COc1cc(NC(=O)COC(=O)C=C(C)C)c(C)cc1[N+](=O)[O-]` had a kinetic solubility of 17.2 µg/mL (≈ 53.4 µM).

Molecule `N#Cc1c(N)nc2c(c1-c1ccc(F)cc1)CCC2` registered a kinetic solubility of 3.7 µg/mL (≈ 14.6 µM).

`O=C(CCc1nc2ccccc2s1)NCc1ccccc1F` showed a solubility (kinetic) of over 47.2 µg/mL.

Molecule `O=C1CN(CC(=O)NC2CCCc3ccccc32)CCN1` (stereo unspecified) displayed a kinetic solubility of over 43.1 µg/mL.

Turning to `CCOC(=O)C1CCN(C(=O)COC(=O)CNC(=O)c2ccc(C(C)(C)C)cc2)CC1`, the kinetic solubility was over 64.9 µg/mL.

With `CC(CC(=O)NCc1ccc(F)cc1)c1ccccc1` (stereo unspecified), the kinetic solubility is over 40.7 µg/mL.

In the case of `O=C(O)/C=C/C(=O)NC1CCCCCCCCCCC1`, the solubility (kinetic) was over 42.2 µg/mL.

The molecule `Cc1cc(C)nc(N(C#N)Cc2ccc(Cl)cc2)n1` gave a kinetic solubility of 21.7 µg/mL (≈ 79.6 µM).

`O=C(Nc1nc2ccccc2[nH]1)c1cccc(F)c1` yielded a kinetic solubility of 6.6 µg/mL (≈ 25.9 µM).

In the case of `CC(C)(C)C(=O)OC/C(N)=N/OC(=O)c1ccccc1`, the solubility (kinetic) is over 41.7 µg/mL.

As to `Cc1cc(SCc2cccc([N+](=O)[O-])c2)nc(=O)[nH]1`, the kinetic solubility came out at 35.3 µg/mL (≈ 127 µM).

`COc1ccc(CCNC(=O)COC(=O)Cc2c[nH]c3ccccc23)cc1OC`: the solubility (kinetic) was found to be 47 µg/mL (≈ 119 µM).
